Consider one molecule from article PMC5218480 (PLoS ONE, 2017).

This experiment has as its system MV-4-11 cells. Description: Gene expression microarray analysis (Affymetrix PrimeView) and GSEA. Type of experiment: cell-based, human. More on the design: RFU PODN (11730768_x_at) / Fold change /veh PODN (11730768_x_at) / RFU LINC00158 (11744669_a_at) / Fold change /veh LINC00158 (11744669_a_at) / RFU DUSP10 (11751237_a_at) / Fold change /veh DUSP10 (11751237_a_at) / RFU ID3 (11757404_x_at) / Fold change /veh ID3 (11757404_x_at) / RFU PLEKHG5 (11737974_s_at) / Fold change /veh PLEKHG5 (11737974_s_at) / RFU LRRC4B (11730491_at) / Fold change /veh LRRC4B (11730491_at) / RFU GIMAP4 (11747438_a_at) / Fold change /veh GIMAP4 (11747438_a_at) / RFU KRT8 (11758183_x_at) / Fold change /veh KRT8 (11758183_x_at) / RFU CNN1 (11734310_a_at) / Fold change /veh CNN1 (11734310_a_at) / RFU VPS37D (11726825_at) / Fold change /veh VPS37D (11726825_at) / RFU C10orf10 (11716522_x_at) / Fold change /veh C10orf10 (11716522_x_at) / RFU KIR2DL2 /// KIR2DL4 /// KIR2DL5A /// KIR2DL5B /// KIR2DS1 /// KIR2DS2 /// KIR2DS3 /// KIR2DS4 /// KIR3DL3 /// KIR3DL3 /// KIR3DS1 (11738374_at) / Fold change /veh KIR2DL2 /// KIR2DL4 /// KIR2DL5A /// KIR2DL5B /// KIR2DS1 /// KIR2DS2 /// KIR2DS3 /// KIR2DS4 /// KIR3DL3 /// KIR3DL3 /// KIR3DS1 (11738374_at) / RFU C1QL1 (11718748_at) / Fold change /veh C1QL1 (11718748_at) / RFU TMPRSS4 (11747572_a_at) / Fold change /veh TMPRSS4 (11747572_a_at) / RFU HAMP (11756126_x_at) / Fold change /veh HAMP (11756126_x_at) / RFU RNFT2 (11725882_a_at) / Fold change /veh RNFT2 (11725882_a_at) / RFU NR4A2 (11747474_a_at) / Fold change /veh NR4A2 (11747474_a_at) / RFU ABCC12 (11746883_a_at) / Fold change /veh ABCC12 (11746883_a_at) / RFU TMEM136 (11760407_x_at) / Fold change /veh TMEM136 (11760407_x_at) / RFU CLDN22 /// WWC2 (11732394_at) / Fold change /veh CLDN22 /// WWC2 (11732394_at) / RFU HLA-DPB1 (11760878_x_at) / Fold change /veh HLA-DPB1 (11760878_x_at) / RFU SPINT1 (11716480_a_at) / Fold change /veh SPINT1 (11716480_a_at) / RFU GAP43 (11754022_s_at) / Fold change /veh GAP43 (11754022_s_at) / RFU A4GNT (11735810_at) / Fold change /veh A4GNT (11735810_at) / RFU PRB3 (11715151_x_at) / Fold change /veh PRB3 (11715151_x_at) / RFU TUBB4B (11761932_at) / Fold change /veh TUBB4B (11761932_at) / RFU CAPN14 (11732068_a_at) / Fold change /veh CAPN14 (11732068_a_at) / RFU TMCC2 (11721928_a_at) / Fold change /veh TMCC2 (11721928_a_at) / RFU IRGQ (11745062_a_at) / Fold change /veh IRGQ (11745062_a_at) / RFU FAM174B (11720279_a_at) / Fold change /veh FAM174B (11720279_a_at) / RFU TMPRSS4 (11748680_a_at) / Fold change /veh TMPRSS4 (11748680_a_at) / RFU FAM212B (11763350_a_at) / Fold change /veh FAM212B (11763350_a_at) / RFU PLEKHG5 (11743358_a_at) / Fold change /veh PLEKHG5 (11743358_a_at) / RFU ZSCAN30 (11745921_a_at) / Fold change /veh ZSCAN30 (11745921_a_at) / RFU CMKLR1 (11741424_a_at) / Fold change /veh CMKLR1 (11741424_a_at) / RFU LOC101060620 /// MAPK8IP1 (11723275_at) / Fold change /veh LOC101060620 /// MAPK8IP1 (11723275_at) / RFU SPTSSB (11747773_x_at) / Fold change /veh SPTSSB (11747773_x_at) / RFU PRSS12 (11739890_at) / Fold change /veh PRSS12 (11739890_at) / RFU BIN1 (11741810_x_at) / Fold change /veh BIN1 (11741810_x_at) / RFU WNT11 (11732464_a_at) / Fold change /veh WNT11 (11732464_a_at) / RFU C10orf10 (11716521_a_at) / Fold change /veh C10orf10 (11716521_a_at) / RFU C5orf56 (11738089_at) / Fold change /veh C5orf56 (11738089_at) / RFU CYB561 (11721691_x_at) / Fold change /veh CYB561 (11721691_x_at) / RFU ANKRD19P (11752326_a_at) / Fold change /veh ANKRD19P (11752326_a_at) / RFU OR2T12 /// OR2T33 /// OR2T8 (11738714_s_at) / Fold change /veh OR2T12 /// OR2T33 /// OR2T8 (11738714_s_at) / RFU VCAN (11748164_a_at) / Fold change /veh VCAN (11748164_a_at) / RFU JSRP1 (11732532_at) / Fold change /veh JSRP1 (11732532_at) / RFU KRTAP10-11 (11738290_x_at) / Fold change /veh KRTAP10-11 (11738290_x_at) / RFU MYO3A (11730013_a_at) / Fold change /veh MYO3A (11730013_a_at) / RFU EBF3 (11725865_a_at) / Fold change /veh EBF3 (11725865_a_at) / RFU CAMK2N1 (11719241_x_at) / Fold change /veh CAMK2N1 (11719241_x_at) / RFU C5orf56 (11738088_a_at) / Fold change /veh C5orf56 (11738088_a_at) / RFU OLFML3 (11715873_a_at) / Fold change /veh OLFML3 (11715873_a_at) / RFU LOC100653217 /// NTM (11731650_a_at) / Fold change /veh LOC100653217 /// NTM (11731650_a_at) / RFU MAPK11 (11762145_a_at) / Fold change /veh MAPK11 (11762145_a_at) / RFU FIZ1 (11724087_x_at) / Fold change /veh FIZ1 (11724087_x_at) / RFU OASL (11726364_x_at) / Fold change /veh OASL (11726364_x_at) / RFU SOX15 (11748057_x_at) / Fold change /veh SOX15 (11748057_x_at) / RFU CD79A (11719716_a_at) / Fold change /veh CD79A (11719716_a_at) / RFU HIST1H1D (11736915_at) / Fold change /veh HIST1H1D (11736915_at) / RFU CASKIN2 (11723855_a_at) / Fold change /veh CASKIN2 (11723855_a_at) / RFU LOC730098 (11760151_x_at) / Fold change /veh LOC730098 (11760151_x_at) / RFU OR4N2 (11742367_at) / Fold change /veh OR4N2 (11742367_at) / RFU PRRT2 (11749266_a_at) / Fold change /veh PRRT2 (11749266_a_at) / RFU SNX32 (11753110_a_at) / Fold change /veh SNX32 (11753110_a_at) / RFU CDHR5 (11726645_a_at) / Fold change /veh CDHR5 (11726645_a_at) / RFU RCAN1 (11760418_a_at) / Fold change /veh RCAN1 (11760418_a_at) / RFU FAM167A (11723789_a_at) / Fold change /veh FAM167A (11723789_a_at) / RFU FAM26E (11764081_at) / Fold change /veh FAM26E (11764081_at) / RFU ISYNA1 (11749810_s_at) / Fold change /veh ISYNA1 (11749810_s_at) / RFU ACY1 (11761880_at) / Fold change /veh ACY1 (11761880_at) / RFU 11764098_at / Fold change /veh 11764098_at / RFU SAMD14 (11745864_x_at) / Fold change /veh SAMD14 (11745864_x_at) / RFU NPB (11741838_a_at) / Fold change /veh NPB (11741838_a_at) / RFU TMPRSS6 (11731388_a_at) / Fold change /veh TMPRSS6 (11731388_a_at) / RFU KRTAP10-2 (11738614_at) / Fold change /veh KRTAP10-2 (11738614_at) / RFU ARHGAP8 /// PRR5-ARHGAP8 (11727945_x_at) / Fold change /veh ARHGAP8 /// PRR5-ARHGAP8 (11727945_x_at) / RFU KRTAP5-7 /// NADSYN1 (11734609_at) / Fold change /veh KRTAP5-7 /// NADSYN1 (11734609_at) / RFU RASL12 (11751679_a_at) / Fold change /veh RASL12 (11751679_a_at) / RFU CDKN2B (11736163_a_at) / Fold change /veh CDKN2B (11736163_a_at) / RFU PRF1 (11729649_at) / Fold change /veh PRF1 (11729649_at) / RFU, ZNF638 /// ZNF638-IT1 / Fold change vs veh, ZNF638 /// ZNF638-IT1 / RFU, PANK3 / Fold change vs veh, PANK3 / RFU, SH3YL1 / Fold change vs veh, SH3YL1 / RFU, ZEB2 / Fold change vs veh, ZEB2 / RFU, NRIP1 / Fold change vs veh, NRIP1 / RFU, PTTG1IP / Fold change vs veh, PTTG1IP / RFU, CAPN2 / Fold change vs veh, CAPN2 / RFU, MED14 / Fold change vs veh, MED14 / RFU, SNORA58 / Fold change vs veh, SNORA58 / RFU, C1orf63 / Fold change vs veh, C1orf63 / RFU, LRRFIP1 / Fold change vs veh, LRRFIP1 / RFU, NDUFAF7 / Fold change vs veh, NDUFAF7 / RFU, SLC12A2 / Fold change vs veh, SLC12A2 / RFU, IBTK / Fold change vs veh, IBTK / RFU, ESF1 / Fold change vs veh, ESF1 / Fold change vs veh, TMEM50B / RFU, TAOK1 / Fold change vs veh, TAOK1 / RFU, ACBD3 / Fold change vs veh, ACBD3 / RFU, TMA16 / Fold change vs veh, TMA16 / RFU, RWDD3 / Fold change vs veh, RWDD3 / RFU, BCAT1 / Fold change vs veh, BCAT1 / RFU, EDEM3 / Fold change vs veh, EDEM3 / RFU, TMEM33 / Fold change vs veh, TMEM33 / RFU, WDR75 / Fold change vs veh, WDR75 / RFU, AHCTF1 / Fold change vs veh, AHCTF1 / RFU, TFRC / Fold change vs veh, TFRC / RFU, ZDHHC17 / Fold change vs veh, ZDHHC17 / RFU, NOM1 / Fold change vs veh, NOM1 / RFU, ARL8B / Fold change vs veh, ARL8B / RFU, ZBTB11 / Fold change vs veh, ZBTB11 / RFU, TAMM41 / Fold change vs veh, TAMM41 / RFU, KIAA1704 /// LOC100996395 / Fold change vs veh, KIAA1704 /// LOC100996395 / RFU, ING1 / Fold change vs veh, ING1 / RFU, TRMT61B / Fold change vs veh, TRMT61B / RFU, FUBP3 / Fold change vs veh, FUBP3 / RFU, TP53 / Fold change vs veh, TP53 / RFU, TNKS2 / Fold change vs veh, TNKS2 / RFU, ZFP14 / Fold change vs veh, ZFP14 / RFU, ACTR2 / Fold change vs veh, ACTR2 / RFU, PPP3R1 / Fold change vs veh, PPP3R1 / RFU, PIK3R1 / Fold change vs veh, PIK3R1 / RFU, HNRNPA1 / Fold change vs veh, HNRNPA1 / RFU, RNF170 / Fold change vs veh, RNF170 / RFU, ZNF28 / Fold change vs veh, ZNF28 / RFU, RNGTT / Fold change vs veh, RNGTT / RFU, OGT / Fold change vs veh, OGT / RFU, BRD1 / Fold change vs veh, BRD1 / RFU, MARS / Fold change vs veh, MARS / RFU, ZNF655 / Fold change vs veh, ZNF655 / RFU, FAHD1 / Fold change vs veh, FAHD1 / RFU, BDP1 / Fold change vs veh, BDP1 / RFU, LRRCC1 / Fold change vs veh, LRRCC1 / RFU, ARID1A / Fold change vs veh, ARID1A / RFU, ZNF146 / Fold change vs veh, ZNF146 / RFU, ZNF330 / Fold change vs veh, ZNF330 / RFU, GPN3 / Fold change vs veh, GPN3 / RFU, C9orf123 / Fold change vs veh, C9orf123 / RFU, N4BP2L2 / Fold change vs veh, N4BP2L2 / RFU, ARFIP1 / Fold change vs veh, ARFIP1 / RFU, FAM179B / Fold change vs veh, FAM179B / RFU, BCL10 / Fold change vs veh, BCL10 / RFU, UHRF1BP1L / Fold change vs veh, UHRF1BP1L / RFU, BET1 / Fold change vs veh, BET1 / RFU, CNOT2 / Fold change vs veh, CNOT2 / RFU, ZNF268 / Fold change vs veh, ZNF268 / Fold change vs veh, ZNF507 / RFU, DGCR2 / Fold change vs veh, DGCR2 / RFU, WDSUB1 / Fold change vs veh, WDSUB1 / Fold change vs veh, HSP90B1 /// MIR3652 / RFU, ADSS / Fold change vs veh, ADSS / RFU, GK / Fold change vs veh, GK / RFU, ZNF148 / Fold change vs veh, ZNF148 / RFU, TAF9 / Fold change vs veh, TAF9 / RFU, SLC1A5 / Fold change vs veh, SLC1A5 / RFU, SLMO2 / Fold change vs veh, SLMO2 / RFU, ABCC4 / Fold change vs veh, ABCC4 / RFU, LOC101060439 /// RAP1B / Fold change vs veh, LOC101060439 /// RAP1B / RFU, RFX7 / Fold change vs veh, RFX7 / RFU, GTPBP10 / Fold change vs veh, GTPBP10 / RFU, CNEP1R1 / Fold change vs veh, CNEP1R1 / RFU, BIVM-ERCC5 /// ERCC5 / Fold change vs veh, BIVM-ERCC5 /// ERCC5 / RFU, ILF3 / Fold change vs veh, ILF3 / RFU 11762660_at / Fold change /veh 11762660_at / RFU VCAN (11757783_s_at) / Fold change /veh VCAN (11757783_s_at) / RFU DDX43 (11728927_at) / Fold change /veh DDX43 (11728927_at) / RFU KRT8 (11758188_x_at) / Fold change /veh KRT8 (11758188_x_at) / RFU NKD1 (11759106_at) / Fold change /veh NKD1 (11759106_at) / RFU SRD5A1 (11742802_a_at) / Fold change /veh SRD5A1 (11742802_a_at) / RFU TPSAB1 /// TPSB2 (11721975_s_at) / Fold change /veh TPSAB1 /// TPSB2 (11721975_s_at) / RFU GSTM3 (11746129_a_at) / Fold change /veh GSTM3 (11746129_a_at) / RFU IL23R (11737362_x_at) / Fold change /veh IL23R (11737362_x_at) / RFU TMEM51 (11727254_a_at) / Fold change /veh TMEM51 (11727254_a_at) / RFU PIWIL2 (11732686_x_at) / Fold change /veh PIWIL2 (11732686_x_at) / RFU ORM1 (11744905_x_at) / Fold change /veh ORM1 (11744905_x_at) / RFU CCDC152 (11743942_at) / Fold change /veh CCDC152 (11743942_at) / RFU ECM1 (11717891_a_at) / Fold change /veh ECM1 (11717891_a_at) / RFU IL23R (11748794_a_at) / Fold change /veh IL23R (11748794_a_at) / RFU TNFAIP8L3 (11732012_x_at) / Fold change /veh TNFAIP8L3 (11732012_x_at) / RFU MBOAT4 (11741988_at) / Fold change /veh MBOAT4 (11741988_at) / RFU 11764193_at / Fold change /veh 11764193_at / RFU TMEM53 (11763286_at) / Fold change /veh TMEM53 (11763286_at) / RFU MAGEB2 (11727129_at) / Fold change /veh MAGEB2 (11727129_at) / RFU TMEM200A (11744735_a_at) / Fold change /veh TMEM200A (11744735_a_at) / RFU CCDC152 (11751479_a_at) / Fold change /veh CCDC152 (11751479_a_at) / RFU FAM211A (11726209_a_at) / Fold change /veh FAM211A (11726209_a_at) / RFU RGS16 (11746705_a_at) / Fold change /veh RGS16 (11746705_a_at) / RFU VCAN (11755009_s_at) / Fold change /veh VCAN (11755009_s_at) / RFU RHOB (11743442_s_at) / Fold change /veh RHOB (11743442_s_at) / RFU RGS16 (11720943_a_at) / Fold change /veh RGS16 (11720943_a_at) / RFU RGS16 (11720944_at) / Fold change /veh RGS16 (11720944_at) / RFU, VPS4B / Fold change vs veh, VPS4B / RFU, CREB1 / Fold change vs veh, CREB1 / RFU, DNAJC13 / Fold change vs veh, DNAJC13 / RFU, GNAQ / Fold change vs veh, GNAQ / RFU, CDK5R1 / Fold change vs veh, CDK5R1 / RFU, ZRANB3 / Fold change vs veh, ZRANB3 / RFU, CUL4A / Fold change vs veh, CUL4A / RFU, CCNY / Fold change vs veh, CCNY / RFU, UFL1 / Fold change vs veh, UFL1 / RFU, COG3 / Fold change vs veh, COG3 / RFU, DIAPH2 / Fold change vs veh, DIAPH2 / RFU, SKA2 / Fold change vs veh, SKA2 / RFU, AFF3 / Fold change vs veh, AFF3 / RFU, LMF1 / Fold change vs veh, LMF1 / RFU, IPO11 / Fold change vs veh, IPO11 / RFU, DFFB / Fold change vs veh, DFFB / RFU, FOXP1 / Fold change vs veh, FOXP1 / RFU, CARD8 / Fold change vs veh, CARD8 / RFU, STRN3 / Fold change vs veh, STRN3 / RFU, ADK / Fold change vs veh, ADK / RFU, RASSF2 / Fold change vs veh, RASSF2 / RFU, WIPF1 / Fold change vs veh, WIPF1 / RFU, LARP1B / Fold change vs veh, LARP1B / RFU, RASA1 / Fold change vs veh, RASA1 / RFU, RB1 / Fold change vs veh, RB1 / RFU, PPFIA1 / Fold change vs veh, PPFIA1 / RFU, MAT2A / Fold change vs veh, MAT2A / RFU, CCT5 / Fold change vs veh, CCT5 / RFU, WDR92 / Fold change vs veh, WDR92 / RFU, CUX1 / Fold change vs veh, CUX1 / RFU, TTC7A / Fold change vs veh, TTC7A / RFU, TMEM135 / Fold change vs veh, TMEM135 / RFU, DEPTOR / Fold change vs veh, DEPTOR / RFU, CPM / Fold change vs veh, CPM / RFU, DNAJB6 / Fold change vs veh, DNAJB6 / RFU, CACNA2D3 / Fold change vs veh, CACNA2D3 / RFU, DTX4 / Fold change vs veh, DTX4 / RFU, TFCP2 / Fold change vs veh, TFCP2 / RFU, GMCL1 /// GMCL1P1 / Fold change vs veh, GMCL1 /// GMCL1P1 / RFU, AEBP2 / Fold change vs veh, AEBP2 / RFU, SNHG1 /// SNORD22 /// SNORD25 /// SNORD26 /// SNORD27 /// SNORD28 /// SNORD29 /// SNORD31 / Fold change vs veh, SNHG1 /// SNORD22 /// SNORD25 /// SNORD26 /// SNORD27 /// SNORD28 /// SNORD29 /// SNORD31 / Fold change (Aza/veh), C12orf56 (ProbeSet 11735607_a_at) / Fold change (ACY-1035/veh), C12orf56 (ProbeSet 11735607_a_at) / Fold change (Aza/veh), FGFR1OP (ProbeSet 11751329_s_at) / Fold change (ACY-1035/veh), FGFR1OP (ProbeSet 11751329_s_at) / Fold change (Aza/veh), VPS36 (ProbeSet 11739960_a_at) / Fold change (ACY-1035/veh), VPS36 (ProbeSet 11739960_a_at) / RFU SYPL1 (11715823_x_at) / Fold change /veh SYPL1 (11715823_x_at) / RFU IGFBP7 (11715501_s_at) / Fold change /veh IGFBP7 (11715501_s_at) / RFU REEP3 (11722064_at) / Fold change /veh REEP3 (11722064_at) / RFU IGLL1 (11728026_x_at) / Fold change /veh IGLL1 (11728026_x_at): dose or concentration left out as unconfirmed. The note with it: ProbeSet 11752001_a_at; LIST D.

Turning to `Nc1ccc(-c2cccs2)cc1NC(=O)c1ccc2c(c1)cc(C1CC1)n2CCN1CCOCC1` [ACY-1035], the “Fold change vs veh, CUL4A” value came to 0.87.
